What all share (assay): relative viability (nuclei count vs DMSO), 5 days (fraction); higher = more cells survive
Compound in the assay “Tivantinib + Trametinib”: O=C1NC(=O)[C@@H](c2cn3c4c(cccc24)CCC3)[C@@H]1c1c[nH]c2ccccc12 [Tivantinib] + CC(=O)Nc1cccc(-n2c(=O)n(C3CC3)c(=O)c3c(Nc4ccc(I)cc4F)n(C)c(=O)c(C)c32)c1 [Trametinib] (partner 0.02 µM)
The method in brief: (§1)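 One day after seeding in 1536-well plates, lung cancer cell lines were dosed by pin tool. Dosing was either single-drug or a fixed anchor-drug dose plus five library-drug doses (not always all listed) in √10 steps. After 5 days, nuclei were stained in one fix-and-stain step and counted on 4× images, and relative viability is the nuclei count of treated wells over that of vehicle wells, given as the median of duplicate plates.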

Compound in the assay “Crenolanib + Linsitinib”: CC1(COc2ccc3c(c2)ncn3-c2ccc3cccc(N4CCC(N)CC4)c3n2)COC1 [Crenolanib] + C[C@]1(O)C[C@@H](c2nc(-c3ccc4ccc(-c5ccccc5)nc4c3)c3c(N)nccn32)C1 [Linsitinib] (partner 1 µM)
The method in brief:
as §1

Compound in the assay “Crenolanib + Olaparib”: CC1(COc2ccc3c(c2)ncn3-c2ccc3cccc(N4CCC(N)CC4)c3n2)COC1 [Crenolanib] + O=C(c1cc(Cc2n[nH]c(=O)c3ccccc23)ccc1F)N1CCN(C(=O)C2CC2)CC1 [Olaparib] (partner 8 µM)
Summed up: as §1

Compound in the assay “Tivantinib + Phenformin”: O=C1NC(=O)[C@@H](c2cn3c4c(cccc24)CCC3)[C@@H]1c1c[nH]c2ccccc12 [Tivantinib] + N=C(N)NC(=N)NCCc1ccccc1 [Phenformin] (partner 250 µM)
Summed up: as §1

Results on one cell line are retold here after the supplement of paper PMC10307832.

As for UMC-11, the relative viability with Tivantinib + Trametinib (first compound 0.01 µM) turned out to be 0.678; in the assay with Tivantinib + Trametinib (first compound 0.03162 µM), 0.451; with Tivantinib + Trametinib (first compound 0.1 µM), 0.666; with Tivantinib + Trametinib (first compound 0.3162 µM), 0.693; in the assay with Crenolanib + Linsitinib (first compound 0.01 µM) it was 1.01; in the assay with Crenolanib + Linsitinib (first compound 0.03162 µM), 0.997. Moreover, the relative viability in the assay with Crenolanib + Linsitinib (first compound 0.1 µM) worked out at 0.978; with Crenolanib + Linsitinib (first compound 0.3162 µM), 1.14; with Crenolanib + Linsitinib (first compound 1 µM), 0.952; in the assay with Crenolanib + Olaparib (first compound 0.01 µM), 0.394; with Crenolanib + Olaparib (first compound 0.03162 µM), 0.35; in the assay with Crenolanib + Olaparib (first compound 0.1 µM), 0.379. Also, the relative viability with Crenolanib + Olaparib (first compound 0.3162 µM) was determined as 0.556; with Crenolanib + Olaparib (first compound 1 µM) it was 0.341; in the assay with Tivantinib + Phenformin (first compound 0.01 µM), 0.331; in the assay with Tivantinib + Phenformin (first compound 0.03162 µM), 0.338; with Tivantinib + Phenformin (first compound 0.1 µM), 0.289; with Tivantinib + Phenformin (first compound 0.3162 µM), 0.371.
